ChEMBL document CHEMBL3797025, “Spirooxadiazoline oxindoles with promising in vitro antitumor activities” (Medchemcomm, 2016)
Calls of active or inactive are those of the source. The rule behind the calls is not given here.

What was measured:
[1] = Antiproliferative activity against human p53 +/+ HCT116 cells measured after 72 hrs by MTS assay; assay type: functional; settings: HCT-116, 72 h
[2] = Antiproliferative activity against human p53 -/- HCT116 cells measured after 72 hrs by MTS assay; assay type: functional; settings: HCT-116, 72 h
[3] = tested on: HepG2; assay: Antiproliferative activity against human HepG2 cells expressing wild-type P53 measured after 72 hrs by MTS assay; assay type: functional; settings: HepG2, 72 h
[4] = Antiproliferative activity against human SW620 cells expressing P53 mutant measured after 72 hrs by MTS assay; assay type: functional; settings: SW-620, 72 h
[5] = tested on: HCT-116; assay: Induction of apoptosis in human p53 +/+ HCT116 cells assessed as activation of caspase3 at 5 or 10 uM after 24 hrs by Caspase-Glo 3/7 assay; assay type: functional, cell-based
[6] = tested on: HCT-116; assay: Induction of apoptosis in human p53 +/+ HCT116 cells assessed as activation of caspase7 at 5 or 10 uM after 24 hrs by Caspase-Glo 3/7 assay; assay type: functional, cell-based
[7] = tested on: HCT-116; assay: Induction of apoptosis in human p53 +/+ HCT116 cells assessed as increase in PARP cleavage at 5 or 10 uM after 24 hrs by western blot analysis; assay type: functional, cell-based
[8] = target: Cellular tumor antigen p53 (Homo sapiens) (UniProt P04637); assay: Induction of p53 phosphorylation at serine-15 in human p53 +/+ HCT 116 cells bat 5 or 10 uM after 24 hrs by western blot analysis; assay type: cell-based
[9] = Chemical stability in phosphate buffer at pH 7.4 and 37 degC measured for 3 days by HPLC analysis; assay type: physicochemical; settings: pH 7.4, 72 h
[10] = Metabolic stability at human plasma assessed as compound degradation at 37 degC after 72 hrs by HPLC analysis; assay type: ADME, cell-free; settings: read-out: Drug degradation
[11] = Half life in Sprague-Dawley rat liver microsomes at 37 degC in presence of NADPH generating system by HPLC analysis; assay type: ADME

Chain of Cellular tumor antigen p53 (Homo sapiens) (P04637 whole entry, looked up): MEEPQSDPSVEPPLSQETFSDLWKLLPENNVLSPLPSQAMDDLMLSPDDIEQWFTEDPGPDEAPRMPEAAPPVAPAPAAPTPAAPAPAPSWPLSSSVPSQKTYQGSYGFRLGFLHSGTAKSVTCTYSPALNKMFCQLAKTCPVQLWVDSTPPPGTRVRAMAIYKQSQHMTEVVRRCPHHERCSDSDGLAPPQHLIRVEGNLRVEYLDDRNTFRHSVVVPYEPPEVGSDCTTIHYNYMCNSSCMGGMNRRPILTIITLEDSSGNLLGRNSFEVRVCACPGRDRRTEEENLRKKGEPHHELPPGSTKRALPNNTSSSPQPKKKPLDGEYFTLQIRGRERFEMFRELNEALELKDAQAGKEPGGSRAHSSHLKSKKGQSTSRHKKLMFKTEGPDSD

| Structure (SMILES) | GI50 [1] [µM] | GI50 [2] [µM] | further results |
| --- | --- | --- | --- |
| O=C1Nc2ccc(Cl)cc2[C@]12ON=C(c1ccc(Cl)cc1)N2c1cccc(Cl)c1 | 25.6 | 29 |  |
| O=C1Nc2ccccc2[C@]12ON=C(c1ccc(Cl)cc1)N2c1ccc(Cl)cc1 | 31.2 |  |  |
| O=C1Nc2cc(Cl)ccc2[C@]12ON=C(c1ccc(Cl)cc1)N2c1ccccc1 | 26.5 | 30.6 |  |
| O=C1Nc2ccc(Cl)cc2[C@]12ON=C(c1ccccc1)N2c1ccccc1 | 39.1 |  |  |
| O=C1Nc2ccc(Br)cc2[C@]12ON=C(c1cccc(Br)c1)N2c1cccc(Br)c1 | 3.2 | 6 | GI50 [3]: 2.2 µM; GI50 [4]: 3.7 µM |
| O=C1Nc2cc(Cl)ccc2[C@]12ON=C(c1cccc(Cl)c1)N2c1cccc(Cl)c1 | 6.6 | 7.8 | GI50 [3]: 4.4 µM; GI50 [4]: 6.7 µM |
| O=C1Nc2ccc(Cl)cc2[C@]12ON=C(c1cccc(Cl)c1)N2c1cccc(Cl)c1 | 4.6 | 6.8 | GI50 [3]: 3.3 µM; GI50 [4]: 3.9 µM |
| O=C1Nc2ccc(Cl)cc2[C@]12ON=C(c1ccc(Cl)cc1)N2c1ccc(Cl)cc1 | 17.6 | 18 |  |
| O=C1Nc2cc(Cl)ccc2[C@]12ON=C(c1ccccc1)N2c1ccc(Cl)cc1 | 31.8 |  |  |
| O=C1Nc2ccc(Br)cc2[C@]12ON=C(c1cccc(Cl)c1)N2c1cccc(Cl)c1F | 1.7 | 2 | GI50 [3]: 1.2 µM; GI50 [4]: 2 µM |
| O=C1Nc2ccc(Cl)cc2[C@]12ON=C(c1ccccc1)N2c1cccc(Cl)c1 | 26.4 | 41.6 |  |
| O=C1Nc2cc(Cl)ccc2[C@]12ON=C(c1cccc(Cl)c1)N2c1ccc(Cl)cc1 | 28.7 |  |  |
| O=C1Nc2cc(Cl)ccc2[C@]12ON=C(c1ccc(Cl)cc1)N2c1ccc(Cl)cc1 | 13.2 |  |  |
| O=C1Nc2ccccc2[C@]12ON=C(c1ccccc1)N2c1ccc(Cl)cc1 | 54.5 |  |  |
| O=C1Nc2ccc(Br)cc2[C@]12ON=C(c1ccc(Cl)cc1)N2c1cccc(Cl)c1 | 7.7 | 12.3 | GI50 [3]: 4.1 µM; GI50 [4]: 8 µM |
| O=C1Nc2cc(Cl)ccc2[C@]12ON=C(c1ccc(Cl)cc1)N2c1cccc(Cl)c1 | 20.2 |  |  |

| Structure (SMILES) | GI50 [1] [µM] | GI50 [2] [µM] | further results |
| --- | --- | --- | --- |
| O=C1Nc2cc(Cl)ccc2[C@]12ON=C(c1ccccc1)N2c1ccccc1 | 28.4 | 35.5 |  |
| O=C1Nc2ccccc2[C@]12ON=C(c1ccc(Cl)cc1)N2c1cccc(Cl)c1 | 33.7 |  |  |
| O=C1Nc2ccccc2[C@]12ON=C(c1cccc(Cl)c1)N2c1cccc(Cl)c1 | 32.6 |  |  |
| O=C1Nc2ccccc2[C@]12ON=C(c1ccccc1)N2c1ccc(F)cc1 | 99.6 |  |  |
| O=C1Nc2ccc(Cl)cc2[C@]12ON=C(c1cccc(Cl)c1)N2c1ccc(Cl)cc1 | 21.3 | 21.8 |  |
| O=C1Nc2ccc(Br)cc2[C@]12ON=C(c1cccc(Cl)c1)N2c1ccc(F)c(Cl)c1 | 6.6 | 7.2 | GI50 [3]: 4 µM; GI50 [4]: 6.7 µM |
| O=C1Nc2ccccc2[C@]12ON=C(c1cccc(Cl)c1)N2c1ccc(Cl)cc1 | 38.4 |  |  |
| Cc1ccc(C2=NO[C@@]3(C(=O)Nc4cc(Cl)ccc43)N2c2ccccc2)cc1 | 50.6 |  |  |
| O=C1Nc2ccc(Br)cc2[C@]12ON=C(c1cccc(Cl)c1)N2c1cccc(Cl)c1 | 2 | 2.9 | GI50 [3]: 2.1 µM; GI50 [4]: 2.1 µM; Activity [5]: Active; Activity [6]: Active; Activity [7]: Active; Activity [8]: inactive; Stability [9]: Stable; metabolised at 72 h [10]: 38%; half-life [11]: 33.5 min |
| O=C1Nc2ccc(Br)cc2[C@]12ON=C(c1ccccc1)N2c1cccc(Cl)c1 | 4.7 | 7.5 | GI50 [3]: 3.5 µM; GI50 [4]: 4.2 µM |
| O=C1Nc2ccc(Cl)cc2[C@]12ON=C(c1ccccc1)N2c1ccc(Cl)cc1 | 27.1 | 27 |  |
| O=C1Nc2ccccc2[C@]12ON=C(c1ccccc1)N2c1cccc(Cl)c1 | 70.1 |  |  |
| O=C1Nc2ccc(Br)cc2[C@]12ON=C(c1ccccc1)N2c1ccccc1 | 13.5 |  |  |
| O=C1Nc2ccc(Br)cc2[C@]12ON=C(c1cccc(Cl)c1F)N2c1cccc(Cl)c1 | 3.2 | 4.4 | GI50 [3]: 2.5 µM; GI50 [4]: 3.5 µM |
| O=C1Nc2ccc(Br)cc2[C@]12ON=C(c1ccccc1)N2c1ccc(Cl)cc1 | 21.9 | 25.8 |  |
| COc1ccc(C2=N[C@@H](c3ccc(Cl)cc3)[C@@H](c3ccc(Cl)cc3)N2C(=O)N2CCNC(=O)C2)c(OC(C)C)c1 [NUTLIN-3] | 4 | 47.8 |  |
